Data taken from ChEMBL document CHEMBL1201862, “PubChem BioAssay data set” (2004).
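Interpolation was linear, between the two tested concentrations surrounding the appropriate level; five concentrations were tested over 48 hours in 96-well plates. GI50 marks 50% less growth.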 The source made the active and inactive calls. Cut-off read from the data, not from the text of the source: active = GI50 up to about 1.1 µM and inactive = higher.

Legend:
Test in all cases: NCI anticancer screen, dose series, 48 h
[1] = system: HCT-116
[2] = system: SN12C
[3] = system: SNB-19
[4] = system: 786-0
[5] = system: Hs-578T
[6] = system: RXF 393
[7] = system: SK-OV-3
[8] = system: MDA-MB-435
[9] = system: UO-31
[10] = system: HT-29
[11] = system: A549
[12] = system: NCI-H522
[13] = system: RPMI-8226
[14] = system: SF-295
[15] = system: U-251
[16] = system: CAKI-1
[17] = system: MCF7
[18] = system: OVCAR-8
[19] = system: HCC 2998
[20] = system: NCI-H226

Measured: GI50

O=C1/C(=C\c2cccc(Oc3ccccc3)c2)S(=O)(=O)C(c2ccccc2)N1c1cccc(Cl)c1 (stereo not drawn)
inactive: [1] 29.4 µM | [2] 54.8 µM | [3] 68.9 µM | [4] 46.5 µM | [5] 65.5 µM | [6] 36.3 µM | [7] 66.4 µM | [8] 38.5 µM | [9] 34.7 µM | [10] 30.1 µM | [11] > 100 µM | [12] 26.8 µM | [13] 25.9 µM | [14] 39.4 µM | [15] 50.4 µM | [16] 78.2 µM | [17] 30.2 µM | [18] 25.2 µM | [19] > 100 µM

CSc1nc(=O)c2nc(-c3cccs3)c(-c3cccs3)nc2n1C
inactive: [1] > 100 µM | [2] 43.6 µM | [3] 29.8 µM | [4] 30.2 µM | [5] 35.6 µM | [6] 18.7 µM | [7] 26.8 µM | [8] > 100 µM | [9] 33.7 µM | [10] > 100 µM | [11] 44.8 µM | [12] 31 µM | [13] > 100 µM | [14] 32.7 µM | [15] 28.2 µM | [16] 39.6 µM | [17] 24 µM | [18] 29.3 µM | [19] > 100 µM

CCOC(=O)c1cc2c3c(c(C(C)=O)c(OC)c2[nH]1)N(C(=O)CC)CC3
inactive: [1] 14.4 µM | [2] 20.9 µM | [3] 12.8 µM | [4] 17.5 µM | [5] 19.4 µM | [6] 19.6 µM | [7] 50.1 µM | [8] 15.6 µM | [9] 12.7 µM | [10] 16.6 µM | [11] 14 µM | [13] 5.13 µM | [20] 10.2 µM | [14] 19.3 µM | [15] 19.2 µM | [16] 14.9 µM | [17] 14.5 µM | [18] 19.8 µM | [19] 23.4 µM

CC1CNC(c2ccc(CN3CCC(C4CCN(Cc5ccc(C6=NC(C)CN6)cc5)CC4)CC3)cc2)=N1 (stereo not drawn)
inactive: [1] 17.9 µM | [2] 20.1 µM | [3] 26.1 µM | [4] 19.1 µM | [5] 18.6 µM | [6] 16.9 µM | [7] 16.3 µM | [8] 20.8 µM | [9] 26.5 µM | [10] 18.5 µM | [11] 20.6 µM | [12] 15 µM | [13] 19.5 µM | [14] 17 µM | [15] 16 µM | [16] 38.8 µM | [17] 17 µM | [18] 29.6 µM | [19] 14.6 µM

Cn1c2ccccc2n2c(N=O)c(-c3ccccc3)nc12
inactive: [1] 87.9 µM | [2] 69.2 µM | [3] 30.1 µM | [4] > 100 µM | [5] 70.3 µM | [6] 49.3 µM | [7] 67.3 µM | [8] 38.8 µM | [9] 32.5 µM | [10] 27.7 µM | [11] 21.6 µM | [12] 57.5 µM | [13] 90.8 µM | [14] 31.1 µM | [15] 49.8 µM | [16] 39.7 µM | [17] 29 µM | [18] > 100 µM | [19] 11.7 µM

O=C1Nc2cc([N+](=O)[O-])ccc2N/C1=C/C(=O)c1ccc(Cl)cc1
inactive: [1] 3.24 µM | [3] 11.2 µM | [4] 3.13 µM | [5] 11.5 µM | [6] 3.39 µM | [7] 19.4 µM | [8] 18.7 µM | [9] 25.1 µM | [10] 15.3 µM | [11] 10 µM | [13] 10.9 µM | [20] 19.5 µM | [14] 13.3 µM | [15] 6.56 µM | [16] 17.6 µM | [17] 11.2 µM | [18] 8 µM | [19] 23.6 µM
